Values quoted from earlier work in US11498743B2, “Cardboard container for active packaging of fresh fruit and vegetables and production method of same” (Universidad Politecnica de Cartagena, priority 2016, dated 2022).

Row | Half-life in 1M HCl at 60° C. [h] | Compound
1 | 6.2 | OC[C@H]1O[C@@H]2O[C@H]3[C@H](O)[C@@H](O)[C@@H](O[C@H]4[C@H](O)[C@@H](O)[C@@H](O[C@H]5[C@H](O)[C@@H](O)[C@@H](O[C@H]6[C@H](O)[C@@H](O)[C@@H](O[C@H]7[C@H](O)[C@@H](O)[C@@H](O[C@H]1[C@H](O)[C@H]2O)O[C@@H]7CO)O[C@@H]6CO)O[C@@H]5CO)O[C@@H]4CO)O[C@@H]3CO [α-CD, alpha-cyclodextrin]
2 | 5.4 | OC[C@H]1O[C@@H]2O[C@H]3[C@H](O)[C@@H](O)[C@@H](O[C@H]4[C@H](O)[C@@H](O)[C@@H](O[C@H]5[C@H](O)[C@@H](O)[C@@H](O[C@H]6[C@H](O)[C@@H](O)[C@@H](O[C@H]7[C@H](O)[C@@H](O)[C@@H](O[C@H]8[C@H](O)[C@@H](O)[C@@H](O[C@H]1[C@H](O)[C@H]2O)O[C@@H]8CO)O[C@@H]7CO)O[C@@H]6CO)O[C@@H]5CO)O[C@@H]4CO)O[C@@H]3CO [β-CD, beta-cyclodextrin]
3 | 3.0 | OC[C@H]1O[C@@H]2O[C@H]3[C@H](O)[C@@H](O)[C@@H](O[C@H]4[C@H](O)[C@@H](O)[C@@H](O[C@H]5[C@H](O)[C@@H](O)[C@@H](O[C@H]6[C@H](O)[C@@H](O)[C@@H](O[C@H]7[C@H](O)[C@@H](O)[C@@H](O[C@H]8[C@H](O)[C@@H](O)[C@@H](O[C@H]9[C@H](O)[C@@H](O)[C@@H](O[C@H]1[C@H](O)[C@H]2O)O[C@@H]9CO)O[C@@H]8CO)O[C@@H]7CO)O[C@@H]6CO)O[C@@H]5CO)O[C@@H]4CO)O[C@@H]3CO [γ-CD, gamma-cyclodextrin]
